Results on 90 compounds are retold here after a melting point compilation (Tetko et al.; mined from patent text by program, amines drawn as free bases though some values may be those of a salt).

Compound `CCCS(=O)(=O)NC(=O)C[C@H]1O[C@H](c2cccc(OC)c2OC)c2cc(Cl)ccc2N(CC(C)(C)CO)C1=O` displayed a melting point of 135 to 137 °C.
On to `COc1cc(C=O)c(Br)c(OC)c1OC`, for which the melting point was found to be 69 °C.
To `CCCCC(CC)COC(=O)C=CC(=O)NC(N)=O` (stereo not given) belongs 73 to 76 °C; to `CC(C)(C)OC(=O)N1CCc2c(/C=C/[N+](=O)[O-])c3ccccc3n2CC1`, 227 to 230 °C.
In the case of `COc1cc(/C=C2/C(C)=C(CC(=O)O)c3cc(F)ccc32)cc(Br)c1OC`, the melting point worked out at 164 °C.
The result for `CC(C)(C)OC(=O)c1ccccc1-c1ccc(CNC(=O)C2(N)CCOCC2)cc1` reads 125 to 127 °C.
As to `CCCCCCc1ccc(S(=O)(=O)Nc2nncs2)cc1`, the melting point was 125 to 126 °C.
For `O=c1[nH]c2ccc(-c3cccc([N+](=O)[O-])c3)cc2o1`, the melting point lay in the range of 280 to 281 °C.
The compound `COc1nc(C)nc(NC(=O)NS(=O)(=O)c2cc(Br)cc3c2OS(=O)(=O)C(C)=C3)n1` returned a melting point of 196 to 198 °C.
As for `COc1cc(Nc2c(C#N)cnc3cc(/C=C/CCCN4CCOCC4)c(OC)cc23)c(Cl)cc1Cl`, the melting point is 110 to 112 °C.
To `Cc1ccc(C(=O)N2CCN(CCc3ccc(Cl)cc3)CC2)cc1` belongs 105 to 106 °C.
The result for `CNCC(O)C(Oc1ccc2c(c1)OCO2)c1ccccc1` (stereo not given) reads 100 to 122 °C.
For `O=c1oc(/C=C/c2ccccc2)ns1`, the melting point lay within 105 to 106 °C.
To `CC(=O)Nc1ccc(/C=C/C(=O)/C=C/c2ccc(NC(C)=O)cc2)cc1` belongs 253 to 255 °C.
To `COc1ccc(C2CCN(C(N)=O)CC2)cc1OC1CCCC1` belongs 149 to 150 °C; to `CC(CN1CC(=O)N(CN2CCSCC2)C(=O)C1)N1CC(=O)NC(=O)C1` (stereo not given), 206 to 208 °C; to `NC(=O)N(O)CCNC(=O)c1ccccc1Oc1ccccc1`, 182 to 185 °C.
The result for `COc1cc(S(=O)(=O)N2CCN(C(=O)C=C(c3ccccc3)c3ccccc3)CC2)cc(OC)c1OC` reads 163 to 165 °C.
`CCCc1nc2c(N)nc(C)c(C)c2n1CCCCS(C)(=O)=O` returned a melting point of 152 to 153 °C.
Regarding `NCCCCc1ccccc1C1=NNC(=O)CC1`, the melting point was in the range of 78 to 80 °C.
To `CC(C)Cc1ccc(CCc2cc3c(s2)NC(=S)CN=C3c2ccccc2Cl)cc1` belongs 180 to 182 °C; to `CCc1ccc(S(=O)(=O)CC#N)cc1`, 120 to 121 °C; to `CC(C)NC(=O)C(C)CN(C)C` (stereo not given), 67 to 69 °C.
Consider `O=C1Cc2cc(F)c(N3C(=O)C4=C(CCCC4)C3=O)cc2N1`, for which the melting point is 234 to 236 °C.
Regarding `C=C(C)c1ccc2c(c1)Cc1ccccc1O2`, the melting point lay within 62 to 64 °C.
In the case of `O=c1oc2ccc(Cc3ccccc3)cc2c(O)c1CCCOc1ccccc1`, the melting point lay in the range of 149 to 150 °C.
Take `O=C(CCNc1c(C(=O)O)[nH]c2cc(Cl)ccc12)c1cccc(F)c1`: the melting point was 258 to 260 °C.
The result for `CCCN1C(=O)N2C[C@@H](Cc3ccccc3)N=C2c2[nH]c(COCc3ccccc3)nc21` reads 130 to 132 °C.
To `O=C(Nc1ccc2nc(CN3CCCC3)ccc2c1)[C@H]1CO[C@H](c2ccc(Cl)cc2)OC1` belongs 244 to 246 °C.
`O=c1nc(-c2ccnc(N3CCN(c4ccc(F)cc4)CC3)c2)sc2ccccc12` returned a melting point of 233 to 234 °C.
`O=C(Nc1cccnc1)N1CCN(c2nc(-c3ccccc3)cs2)CC1` yielded a melting point of 74 to 75 °C.
The result for `CCC(C)n1ncn(-c2ccc(N3CCN(c4ccc(OC)cc4)CC3)c(Br)c2)c1=O` (stereo not given) reads 145 °C; that for `COC(C)=CC(=O)Nc1ccccc1C`, 101 °C; that for `C[Si](C)(CCO)Cc1ccccc1`, 132 to 133 °C.
The result for `CC(c1cccc(Cl)c1)(n1ccnc1)C1(O)C2CC3CC(C2)CC1C3` (stereo not given) reads 121 °C.
To `Cc1nc(NC(=O)c2cccc(C#N)c2)sc1C(=O)NCc1ccccc1` belongs 207 to 208 °C.
As for `CCCN(CCC)C(Cc1cccc(OC)c1N(C(C)=O)C(C)=O)(C(=O)OCC)C(=O)OCC`, the melting point lay in the range of 72 to 75 °C.
The result for `CC[C@H]1[C@H](O)CC(=O)N1c1ccc(C#N)c(OC)c1` reads 138 to 141 °C; that for `OCc1ncc2n1-c1ccc(Cl)cc1C(c1ccccc1F)=NC2`, 258 to 260 °C.
To `COC1=C(OC)C(=O)C(CCC(=O)N[C@@H](Cc2ccc(O)cc2)C(=O)O)=C(C)C1=O` belongs 170 °C; to `CCCCCCCCCCC(C)(C)C(=O)NC1CCCNC(=O)C1` (stereo not given), 41 to 42 °C; to `COc1cccc(-c2csc(-c3cccc([N+](=O)[O-])c3)n2)c1`, 122 to 123 °C.
In turn, `Cc1ccccc1-c1c(N)c(=O)oc2cc3c(cc12)CCC3` registered a melting point of 275 to 276 °C.
The result for `CCCCCCCCC(=O)Nc1ccn(C2OC(CO)C(O)C2O)c(=O)n1` (stereo not given) reads 150 to 152 °C; that for `CC(NC(=O)OCc1ccccc1)C(=O)N1CC(=O)NC1(C)C` (stereo not given), 170 to 171 °C; that for `COc1cc(CCc2ccc(O)c(O)c2)cc(OC)c1OC`, 113 to 115 °C.
To `COc1cc(Nc2c(C#N)cnc3cc(-c4ccc(Cn5ccnn5)cc4)ccc23)c(Cl)cc1Cl` belongs 239 to 240 °C.
`N=C(NO)c1ccc(S(N)(=O)=O)s1` had a melting point of 189 °C.
Compound `Cc1ccc(C2=NNC(=O)Cc3cc4c(cc32)OCO4)cc1` came in with a melting point of 222 to 224 °C.
The result for `Cn1c(=O)n(CCCCI)c(=O)c2ccccc21` reads 105 to 107 °C; that for `CCCc1cc(-c2cc(OC)c3c(C)c(C)c(=O)oc3c2)on1`, 94 °C.
Compound `CSc1c(C(=O)O)ccc(Cl)c1F` had a melting point of 150 °C.
As for `O=C(Nc1cccc2c1C(=O)c1c-2n[nH]c1-c1ccc(C(=O)NC2CCCNC2)s1)NN1CCOCC1` (stereo not given), the melting point is above 300 °C.
The result for `CCN(CC)OC(=O)c1cc(C(C)(C)C)c(O)c(C(C)(C)C)c1` reads 129 to 137 °C; that for `Fc1ccccc1-c1c(OCc2ncnn2CC(F)F)nn2c(-c3ccccc3F)nncc12`, 179 to 180 °C.
For the compound `Cc1c(C(F)(F)C(F)(F)F)ncn(-c2c(Cl)cc(C(F)(F)F)cc2C#N)c1=O`, the melting point is 158 to 160 °C.
Take `COc1ccc2c(c1)C13CCCOC1(C)C(C2)N(C#N)CC3` (stereo not given): the melting point is 157 to 158 °C.
Regarding `CC1(C)CC(=O)C2=C(C1)NC1=C(C(=O)CC(C)(C)C1)C2c1ccc(Cl)c(Cl)c1`, the melting point was above 300 °C.
The result for `Cc1cc2nc(N)[nH]c(=O)c2[nH]1` reads 252 to 254 °C; that for `CC(C)(C)NCC(O)COc1ccccc1-c1ccc(=S)[nH]n1` (stereo not given), 186 to 189 °C; that for `COc1cc2c(c(OC)c1OC)C=C(C=CC(=O)N1CCC(C3CCN(C(=O)C=CC4=Cc5c(cc(OC)c(OC)c5OC)CC4)CC3)CC1)CC2`, 253 to 256 °C.
The result for `COC1(c2ccc(C#Cc3cc(F)cc(F)c3NC(=O)C(C)(C)C)cc2)CCOCC1` reads 77 to 79 °C; that for `COc1ccc(N)c(S)c1`, 104 °C; that for `N#Cc1ccccc1NC(=O)C1CCCCC1`, 135 to 137 °C.
`COC(=O)C(O)Cc1ccc(O)cc1` (stereo not given) yielded a melting point of 42 to 43 °C.
For `CN(C(=O)c1ccc2nonc2c1)C1CCOC(O)C1` (stereo not given), the melting point was below 90 °C.
In turn, `O=C1NC[C@@H](C(=O)NCCO[N+](=O)[O-])O1` came in with a melting point of 101 to 103 °C.
To `Cc1ccnc2ccc(C(=O)c3ccc(Cl)cc3)cc12` belongs 114 °C.
The result for `C=C(CC(Cl)(Cl)Cl)c1nc(Cl)ccc1Cl` reads 71 to 74 °C.
To `CC(=O)NC1c2ccccc2-c2[nH]c(=O)c3nccn3c21` (stereo not given) belongs 330 °C; to `CNC(=O)Nc1snc(N(C)C)c1C(N)=O`, 221 °C; to `CCC(=O)N1CCN(C(=O)Cl)CC1`, 45 °C.
As to `C[C@H]1CC[C@H]2C(C)(C)C(=NN3CCOCC3)CC[C@]23Oc2c(c(O)cc4c2CNC4=O)C[C@]13C`, the melting point fell in the range of 202 to 205 °C.
As for `CC1(C)CCc2c(N3CCSCC3)nc3sc4c(NCCCN5CCCC5=O)ncnc4c3c2C1`, the melting point was in the range of 219 to 221 °C.
To `COC(=O)Cn1c(=O)[nH]c2ccc(C(=O)c3c(C)c(OC)c4ccccn34)cc2c1=O` belongs 253 °C; to `CN(CCc1ccccc1)C(=O)Cn1cc(CCC(=O)O)c2cc(OCc3ccccc3)ccc21`, 122 to 125 °C; to `C=C1SC(=O)N(c2ccc3cc(-c4ccc(OC)c(C(C)(C)C)c4)ccc3c2)C1=O`, 274 to 276 °C.
To `COc1c(Cl)cc(NC(=O)OCCCl)c(OC)c1[N+](=O)[O-]` belongs 93 °C; to `COC(=O)CCOc1ccc(CNC(=O)[C@@H]2Cc3ccccc3N2S(=O)(=O)c2ccc(C(C)(C)C)cc2)cc1`, 50 to 52 °C; to `O=C1N(CC(F)(F)F)C(=NCc2ccc(OC(F)(F)F)cc2)SCN1c1ccccc1`, 84 to 87 °C.
As to `CC(=O)N1CCN(c2cc3c(c(C)c2F)c(=O)c(C(=O)O)cn3C2CC2)CC1`, the melting point lay in the range of 261 to 263 °C.
To `CCNC(=O)c1ccc(F)c(NC(=O)c2cc(C(C)(C)C)nn2CC)c1` belongs 188 °C; to `CCOC(=O)N1CCn2c(nc(-c3ccncn3)cc2=O)C(NC(=O)c2ccccn2)C1` (racemic), 250 to 252 °C; to `COC(=O)CCc1ccc(N2CCN(c3ccc(CCN)cc3)C2=O)cc1`, above 200 °C.
Compound `O=C1C(=O)c2ccccc2C2=C1SCC1(CCN(C(=O)c3ccncc3)CC1)O2` gave a melting point of 267 to 269 °C.
The result for `CNC(=O)NC1CCC(=O)c2ccccc21` (stereo not given) reads 220 to 223 °C; that for `Nc1ccc(S(=O)(=O)c2cc(C3=CCCCC3)nc(N3CCCC3)c2)cc1`, 237 to 238 °C; that for `CC(C)(C)OC(=O)CC[C@H](NC(=O)c1ccc(NCc2ccccc2)c(F)c1)C(=O)OC(C)(C)C`, 80 to 82 °C.
The result for `CC1(C)CCc2c(-c3ccoc3)nc3sc4c(NCCc5c[nH]cn5)ncnc4c3c2C1` reads 265 to 267 °C.
Compound `CCc1c(-c2ccc(O)cc2)c2ccc3ccc(CO)c1n32` yielded a melting point of 154 to 156 °C.

Broadly, the melting point is the temperature, or range, at which the solid turns liquid.
